Measured values as given in PubChem BioAssay AID1918952 (Molecular Pharmacology Branch, DTP, NCI, 2023).

System: LG0703-F948-PDC complex spheroid viability
Assay: Anticancer human tumor LG0703-F948-PDC patient-derived lung adenocarcinoma cell line growth inhibition
Settings: for IC50: curve of first compound; for viability, T/C: stronger effect = lower value
Excerpt: Multicellular complex tumor spheroid response to LSD1 Inhibitor Iadademstat in combination with a variety of drugs and investigational agents in selected tumor cell lines
The current study was undertaken to assess response to LSD1 inhibitors in combination with standard-of-care drugs and investigational agents in solid tumor complex spheroid models as well as in the K-562 leukemia. Complex spheroids include a stromal component modeled by human endothelial cells (HUVEC) and fibroblasts modeled by human mesenchymal stem cells (MSCs). The concentration ranges selected for each drug and investigational agent were based upon clinically achievable concentrations if the clinical Cmax of the agent was known.
Compounds. The drugs and investigational agents used in this study are listed on Table 1. All of the agents used, including staurosporine (NSC755774) and gemcitabine (NSC613327), were obtained from the Developmental Therapeutics Program, NCI. FDA-approved anticancer drugs are available from the NCI at http://dtp.nci.nih.gov/branches/dscb/oncology_drugset_explanation.html. Drugs and investigational agents were >95% pure by proton nuclear magnetic resonance (NMR) and liquid chromatography/mass spectrometry (LC/MS). Stock solutions were prepared at 400x in DMSO, stored at -70 degrees C, and diluted in fresh medium prior to their use. The final concentration of DMSO in cell culture wells never exceeded 0.25% (v/v). The FDA-approved anticancer drug set is available from the Developmental Therapeutics Program at https://dtp.cancer.gov/organization/dscb/obtaining/available_plates.htm. All drugs and investigational agents were tested over a range starting from a high concentration at or near the clinical Cmax and decreasing in half-log increments. If the clinical Cmax for an agent had not been determined, the highest concentration tested was 10 microM.
Cell Lines. The patient-derived cancer cell (PDC) lines: 292921-168-R-J2-PDC, K24384-001-R-PDC, and 521955-158-R2-J5-PDC pancreatic carcinomas, 556581-035-R-J1 ovarian carcinoma, 324938-238-R-J1-PDC, 855422-203-R-J1-PDC and 883617-216-R-J1-PDC urothelial bladder carcinomas, 743489-274-T-PDC renal cell carcinoma, 138582-R-J1 Merkel cell tumor, K60290-347-R-J1 and K57222-313-R-J1-PDC glioblastomas, 653999-131-R-J2-PDC, LG0703-F948-PDC, and 349418-098-R-PDC non-small cell lung carcinomas, 885512-296-R-J2-PDC, 171881-019-R-J1-PDC breast carcinomas and 186277-243-T-J2-PDC and 233499-124-R-J2-PDC colon carcinomas were obtained from the NCI Patient-Derived Models Repository (PDMR, https://pdmr.cancer.gov). The established cell lines NCI/ADR-RES (RRID:CVCL_14520 and OVCAR-5 (RRID:CVCL_1628) ovarian carcinomas, 786-O (RRID:CVCL_1051) and A498 (RRID:CVCL_A498) renal cell carcinoma, NCI-H211 (ATCC, cat. CRL-5824; RRID:CVCL_1529), NCI-H196 (ATCC, cat. CRL-5823, RRID:CVCL_1509), SW 1271 (ATCC, cat. CRL-2177, RRID:CVCL_1716) and NCI-H1876 (ATCC, cat. CRL-5902, RRID:CVCL_1503) small cell lung carcinomas, MDA-MB-231 (RRID:CVCL_0062) and MDA-MB-468 (RRID:CVCL_0419)breast carcinomas (10-12). Pooled donor human umbilical vein endothelial cells (HUVEC, Lonza, cat. CC-2519) and human mesenchymal stem cells (hMSC, Lonza, cat. PT-2501) were purchased from Lonza (Walkersville, MD).
Cell Culture. All cells were maintained in an incubator at 37 degrees C and 5% CO2 with 95% humidity. The PDC lines were cultured according to standard operating procedures established by the NCI PDMR (https://pdmr.cancer.gov). Briefly all PDCs were thawed and cultured in Matrigel-coated flasks prepared with a working solution of 1X Ham's F-12 nutrient mix, without supplementation (Invitrogen, Waltham, MA, cat. 11765054), 100 U/mL penicillin-streptomycin (Invitrogen, cat. 15140122), and 2.5% Matrigel (Corning Inc., Corning, NY, cat. 354248) for the first three passages. […]
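Further: spheroids exposed to agents for seven days before readout.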
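Wherever viability, T/C is given: 100% = DMSO vehicle control wells as normalization base.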

**Q.** What does the source list for `CCN(c1cc(-c2ccc(CN3CCOCC3)cc2)cc(C(=O)NCc2c(C)cc(C)[nH]c2=O)c1C)C1CCOCC1` + NC1CC1c1ccc(-c2cccc(O)c2)cc1?
**A.** IC50 (second compound 0.1 µM): > 3 µM; IC50 (second compound 0.316 µM): > 3 µM; IC50 (second compound 1 µM): > 3 µM; IC50 (second compound 3.16 µM): > 3 µM; IC50 (second compound 10 µM): > 3 µM; viability, T/C (second compound 0.1 µM, first compound 0.00949 µM): 104%; viability, T/C (second compound 0.1 µM, first compound 0.03 µM): 113%; viability, T/C (second compound 0.1 µM, first compound 0.0949 µM): 93.7%; viability, T/C (second compound 0.1 µM, first compound 0.3 µM): 105%; viability, T/C (second compound 0.1 µM, first compound 0.949 µM): 107%; viability, T/C (second compound 0.1 µM, first compound 3 µM): 105%; viability, T/C (second compound 0.316 µM, first compound 0.00949 µM): 112%; viability, T/C (second compound 0.316 µM, first compound 0.03 µM): 93.9%; viability, T/C (second compound 0.316 µM, first compound 0.0949 µM): 101%; viability, T/C (second compound 0.316 µM, first compound 0.3 µM): 93.6%; viability, T/C (second compound 0.316 µM, first compound 0.949 µM): 102%; viability, T/C (second compound 0.316 µM, first compound 3 µM): 94.9%; viability, T/C (second compound 1 µM, first compound 0.00949 µM): 89.3%; viability, T/C (second compound 1 µM, first compound 0.03 µM): 98.8%; viability, T/C (second compound 1 µM, first compound 0.0949 µM): 95.6%; viability, T/C (second compound 1 µM, first compound 0.3 µM): 96.2%; viability, T/C (second compound 1 µM, first compound 0.949 µM): 94.7%; viability, T/C (second compound 1 µM, first compound 3 µM): 93.2%; viability, T/C (second compound 3.16 µM, first compound 0.00949 µM): 93.7%; viability, T/C (second compound 3.16 µM, first compound 0.03 µM): 95.6%; viability, T/C (second compound 3.16 µM, first compound 0.0949 µM): 93.7%; viability, T/C (second compound 3.16 µM, first compound 0.3 µM): 85.1%; viability, T/C (second compound 3.16 µM, first compound 0.949 µM): 99.7%; viability, T/C (second compound 3.16 µM, first compound 3 µM): 95.2%; viability, T/C (second compound 10 µM, first compound 0.00949 µM): 105%; viability, T/C (second compound 10 µM, first compound 0.03 µM): 91.9%; viability, T/C (second compound 10 µM, first compound 0.0949 µM): 84.6%; viability, T/C (second compound 10 µM, first compound 0.3 µM): 81.6%; viability, T/C (second compound 10 µM, first compound 0.949 µM): 81.8%; viability, T/C (second compound 10 µM, first compound 3 µM): 86.1%

**Q.** `CC1(C)CCC(CN2CCN(c3ccc(C(=O)NS(=O)(=O)c4ccc(NCC5CCOCC5)c([N+](=O)[O-])c4)c(Oc4cnc5[nH]ccc5c4)c3)CC2)=C(c2ccc(Cl)cc2)C1` + NC1CCC(NC2CC2c2ccccc2)CC1 was tested. Which IC50 (second compound 0.1 µM) did it give?
**A.** Its IC50 is 2.38 µM.

**Q.** What about the IC50 (second compound 0.316 µM) of the same compound?
**A.** Its IC50 is 2.18 µM.

**Q.** What about the IC50 (second compound 1 µM) of the same compound?
**A.** The IC50 was 2.55 µM.

**Q.** What about the IC50 (second compound 3.16 µM) of the same compound?
**A.** Its IC50 is 2.63 µM.

**Q.** What about the IC50 (second compound 10 µM) of the same compound?
**A.** Its IC50 is 2.36 µM.

**Q.** What about the viability, T/C (second compound 0.1 µM, first compound 0.0316 µM) of the same compound?
**A.** Its viability, T/C is 107%.

**Q.** And the viability, T/C (second compound 0.1 µM, first compound 0.1 µM)?
**A.** The viability, T/C was 90.9%.

**Q.** And the viability, T/C (second compound 0.1 µM, first compound 0.316 µM)?
**A.** Its viability, T/C is 85.2%.

**Q.** What about the viability, T/C (second compound 0.1 µM, first compound 1 µM) of the same compound?
**A.** The viability, T/C was 99.4%.

**Q.** What about the viability, T/C (second compound 0.1 µM, first compound 3.16 µM) of the same compound?
**A.** Its viability, T/C is 34.9%.

**Q.** What about the viability, T/C (second compound 0.1 µM, first compound 10 µM) of the same compound?
**A.** Its viability, T/C is 2.77%.

**Q.** And the viability, T/C (second compound 0.316 µM, first compound 0.0316 µM)?
**A.** Its viability, T/C is 97.3%.

**Q.** What about the viability, T/C (second compound 0.316 µM, first compound 0.1 µM) of the same compound?
**A.** Its viability, T/C is 99.2%.

**Q.** And the viability, T/C (second compound 0.316 µM, first compound 0.316 µM)?
**A.** The viability, T/C was 102%.

**Q.** And the viability, T/C (second compound 0.316 µM, first compound 1 µM)?
**A.** The viability, T/C was 112%.

**Q.** What about the viability, T/C (second compound 0.316 µM, first compound 3.16 µM) of the same compound?
**A.** The viability, T/C was 24.9%.

**Q.** And the viability, T/C (second compound 0.316 µM, first compound 10 µM)?
**A.** The viability, T/C was 2.76%.

**Q.** And the viability, T/C (second compound 1 µM, first compound 0.0316 µM)?
**A.** The viability, T/C was 100%.

**Q.** What about the viability, T/C (second compound 1 µM, first compound 0.1 µM) of the same compound?
**A.** Its viability, T/C is 119%.

**Q.** What about the viability, T/C (second compound 1 µM, first compound 0.316 µM) of the same compound?
**A.** Its viability, T/C is 117%.

**Q.** And the viability, T/C (second compound 1 µM, first compound 1 µM)?
**A.** Its viability, T/C is 103%.

**Q.** And the viability, T/C (second compound 1 µM, first compound 3.16 µM)?
**A.** Its viability, T/C is 37.8%.

**Q.** And the viability, T/C (second compound 1 µM, first compound 10 µM)?
**A.** The viability, T/C was 2.92%.

**Q.** What about the viability, T/C (second compound 3.16 µM, first compound 0.0316 µM) of the same compound?
**A.** The viability, T/C was 126%.

**Q.** What about the viability, T/C (second compound 3.16 µM, first compound 0.1 µM) of the same compound?
**A.** The viability, T/C was 119%.

**Q.** And the viability, T/C (second compound 3.16 µM, first compound 0.316 µM)?
**A.** Its viability, T/C is 135%.

**Q.** And the viability, T/C (second compound 3.16 µM, first compound 1 µM)?
**A.** The viability, T/C was 118%.

**Q.** And the viability, T/C (second compound 3.16 µM, first compound 3.16 µM)?
**A.** Its viability, T/C is 36.9%.

**Q.** And the viability, T/C (second compound 3.16 µM, first compound 10 µM)?
**A.** Its viability, T/C is 2.37%.

**Q.** And the viability, T/C (second compound 10 µM, first compound 0.0316 µM)?
**A.** The viability, T/C was 112%.

**Q.** And the viability, T/C (second compound 10 µM, first compound 0.1 µM)?
**A.** The viability, T/C was 114%.

**Q.** What about the viability, T/C (second compound 10 µM, first compound 0.316 µM) of the same compound?
**A.** The viability, T/C was 104%.

**Q.** What about the viability, T/C (second compound 10 µM, first compound 1 µM) of the same compound?
**A.** Its viability, T/C is 99.1%.

**Q.** And the viability, T/C (second compound 10 µM, first compound 3.16 µM)?
**A.** Its viability, T/C is 33.4%.

**Q.** What about the viability, T/C (second compound 10 µM, first compound 10 µM) of the same compound?
**A.** Its viability, T/C is 2.95%.
